{"source": "ChEMBL document CHEMBL4392854", "about": "“Discovery, synthesis, biological evaluation and molecular docking study of (R)-5-methylmellein and its analogs as selective monoamine oxidase A inhibitors” (Bioorg Med Chem, 2019)", "key": {"Homo sapiens": {"species": "Homo sapiens", "assay": "Selectivity index, ratio of IC50 for human recombinant MAOB to IC50 for human recombinant MAOA; call rule not given here"}, "[1]": {"biological_target": "T1, Amine oxidase [flavin-containing] A (Homo sapiens, UniProt P21397)", "T1 sequence (P21397 whole entry)": "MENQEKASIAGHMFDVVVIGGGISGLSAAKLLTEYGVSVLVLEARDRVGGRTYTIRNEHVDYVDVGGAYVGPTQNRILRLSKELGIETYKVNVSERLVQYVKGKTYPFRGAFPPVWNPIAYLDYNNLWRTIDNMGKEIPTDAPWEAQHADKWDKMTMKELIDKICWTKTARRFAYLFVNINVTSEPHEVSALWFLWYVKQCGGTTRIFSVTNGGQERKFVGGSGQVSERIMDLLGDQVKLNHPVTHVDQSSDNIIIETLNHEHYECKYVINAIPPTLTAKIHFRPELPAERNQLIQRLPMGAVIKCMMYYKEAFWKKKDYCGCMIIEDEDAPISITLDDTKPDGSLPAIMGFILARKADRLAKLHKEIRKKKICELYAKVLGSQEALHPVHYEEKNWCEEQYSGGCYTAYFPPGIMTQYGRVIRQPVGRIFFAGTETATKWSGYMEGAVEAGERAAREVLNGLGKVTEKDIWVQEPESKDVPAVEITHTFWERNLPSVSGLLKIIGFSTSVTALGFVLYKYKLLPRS", "assay": "Inhibition of human recombinant MAOA using kynuramine as substrate incubated for 10 mins by UPLC-ESI-MS/MS analysis based Eadie-Hofstee plot analysis"}, "[2]": {"biological_target": "T1, Amine oxidase [flavin-containing] A", "assay": "Tight binding competitive inhibition of human recombinant MAOA using 50 uM to 1000 uM kynuramine as substrate incubated for 10 mins by UPLC-ESI-MS/MS analysis based kinetic analysis"}, "[3]": {"biological_target": "T1, Amine oxidase [flavin-containing] A", "assay": "Tight-binding competitive inhibition of human recombinant MAOA using kynuramine as substrate incubated for 10 mins by UPLC-ESI-MS/MS analysis based Lineweaver-Burk plot kinetic analysis"}, "[4]": {"biological_target": "T1, Amine oxidase [flavin-containing] A", "assay": "Inhibition of human recombinant MAOA using kynuramine as substrate incubated for 10 mins by UPLC-ESI-MS/MS analysis based Michaelis-Menten plot kinetic analysis"}, "[5]": {"biological_target": "T1, Amine oxidase [flavin-containing] A", "assay": "Inhibition of human recombinant MAOA using kynuramine as substrate incubated for 10 mins by UPLC-ESI-MS/MS analysis"}, "[6]": {"biological_target": "T2, Amine oxidase [flavin-containing] B (Homo sapiens, UniProt P27338)", "T2 sequence (P27338 whole entry)": "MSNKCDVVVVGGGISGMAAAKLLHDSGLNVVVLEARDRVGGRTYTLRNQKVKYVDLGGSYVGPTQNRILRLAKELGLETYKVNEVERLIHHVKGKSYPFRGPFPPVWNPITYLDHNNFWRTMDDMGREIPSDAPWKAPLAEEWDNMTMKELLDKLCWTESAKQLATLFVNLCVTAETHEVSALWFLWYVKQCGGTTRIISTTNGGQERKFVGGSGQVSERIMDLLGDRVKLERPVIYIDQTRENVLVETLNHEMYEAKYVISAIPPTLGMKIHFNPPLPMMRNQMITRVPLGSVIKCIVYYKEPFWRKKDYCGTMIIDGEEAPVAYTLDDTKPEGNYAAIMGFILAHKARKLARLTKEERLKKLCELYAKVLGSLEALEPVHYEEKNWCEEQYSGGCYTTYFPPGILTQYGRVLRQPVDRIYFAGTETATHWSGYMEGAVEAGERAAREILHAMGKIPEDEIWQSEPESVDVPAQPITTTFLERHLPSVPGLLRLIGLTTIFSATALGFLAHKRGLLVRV", "assay": "Inhibition of human recombinant MAOB using kynuramine as substrate incubated for 10 mins by UPLC-ESI-MS/MS analysis"}}, "note": "pIC50: −log10 of the molar value."}
{"smiles": "CC[C@@H]1Cc2c(C)cc(-c3cncnc3)c(O)c2C(=O)O1", "values": [{"measurement": "Ratio IC50", "setting": "Homo sapiens", "result": "> 830"}, {"measurement": "inhibition (INH)", "setting": "[1]", "result": "Active"}, {"measurement": "inhibition (INH)", "setting": "[2]", "result": "Active"}, {"measurement": "inhibition (INH)", "setting": "[3]", "result": "Active"}, {"measurement": "inhibition (INH)", "setting": "[4]", "result": "Active"}, {"measurement": "pIC50", "setting": "[5]", "result": 7.22}, {"measurement": "pIC50", "setting": "[6]", "result": "< 4.30"}]}
